The test system of series [1] is PC-9. The series can be described thus: Antiproliferative activity against human PC-9 cells harboring EGFR del19/T790M/C797S mutant assessed as inhibition of cell proliferation. The class given is functional, cell-based.
The test system of the next series is BaF3. The experiment in a line: Antiproliferative activity against mouse BaF3 cells harboring del19/T790M/C797S mutant assessed as inhibition of cell proliferation. The series is classed as functional, cell-based.
In series [2] the test system is PC-9. The series can be described thus: cells. To be noted: Homo sapiens, PC-9, 72 h.
Series [3] can be described thus: AUC (0 to last) in CD-1 mouse at 2 mg/kg, iv. Further details: time 0 - last, dose 2 mg/kg, route iv. To be noted: in vivo. The series is classed as ADME, organism-based.
Series [4] can be described thus: Volume of distribution at steady state in CD-1 mouse at 2 mg/kg, iv. To be noted: in vivo, read-out: Vdss. The series is classed as ADME, organism-based.
In series [5] the target is Epidermal growth factor receptor (Homo sapiens, UniProt P00533, EX19DEL). The experiment in a line: Inhibition of EGFR del19 mutant (unknown origin).
Series [6] in a line: AUC (0 to last) in CD-1 mouse at 10 mg/kg, po. The series is classed as ADME, organism-based. Details: time 0 - last, dose 10 mg/kg, route po. To be noted: in vivo.
The target in series [7] is Epidermal growth factor receptor (Homo sapiens, UniProt P00533, L858R/T790M). The experiment in a line: Inhibition of EGFR L858R/T790M mutant (unknown origin).
Chain of Epidermal growth factor receptor (Homo sapiens, UniProt P00533, L858R/T790M) (P00533 25-1210 T790M/L858R limits assumed): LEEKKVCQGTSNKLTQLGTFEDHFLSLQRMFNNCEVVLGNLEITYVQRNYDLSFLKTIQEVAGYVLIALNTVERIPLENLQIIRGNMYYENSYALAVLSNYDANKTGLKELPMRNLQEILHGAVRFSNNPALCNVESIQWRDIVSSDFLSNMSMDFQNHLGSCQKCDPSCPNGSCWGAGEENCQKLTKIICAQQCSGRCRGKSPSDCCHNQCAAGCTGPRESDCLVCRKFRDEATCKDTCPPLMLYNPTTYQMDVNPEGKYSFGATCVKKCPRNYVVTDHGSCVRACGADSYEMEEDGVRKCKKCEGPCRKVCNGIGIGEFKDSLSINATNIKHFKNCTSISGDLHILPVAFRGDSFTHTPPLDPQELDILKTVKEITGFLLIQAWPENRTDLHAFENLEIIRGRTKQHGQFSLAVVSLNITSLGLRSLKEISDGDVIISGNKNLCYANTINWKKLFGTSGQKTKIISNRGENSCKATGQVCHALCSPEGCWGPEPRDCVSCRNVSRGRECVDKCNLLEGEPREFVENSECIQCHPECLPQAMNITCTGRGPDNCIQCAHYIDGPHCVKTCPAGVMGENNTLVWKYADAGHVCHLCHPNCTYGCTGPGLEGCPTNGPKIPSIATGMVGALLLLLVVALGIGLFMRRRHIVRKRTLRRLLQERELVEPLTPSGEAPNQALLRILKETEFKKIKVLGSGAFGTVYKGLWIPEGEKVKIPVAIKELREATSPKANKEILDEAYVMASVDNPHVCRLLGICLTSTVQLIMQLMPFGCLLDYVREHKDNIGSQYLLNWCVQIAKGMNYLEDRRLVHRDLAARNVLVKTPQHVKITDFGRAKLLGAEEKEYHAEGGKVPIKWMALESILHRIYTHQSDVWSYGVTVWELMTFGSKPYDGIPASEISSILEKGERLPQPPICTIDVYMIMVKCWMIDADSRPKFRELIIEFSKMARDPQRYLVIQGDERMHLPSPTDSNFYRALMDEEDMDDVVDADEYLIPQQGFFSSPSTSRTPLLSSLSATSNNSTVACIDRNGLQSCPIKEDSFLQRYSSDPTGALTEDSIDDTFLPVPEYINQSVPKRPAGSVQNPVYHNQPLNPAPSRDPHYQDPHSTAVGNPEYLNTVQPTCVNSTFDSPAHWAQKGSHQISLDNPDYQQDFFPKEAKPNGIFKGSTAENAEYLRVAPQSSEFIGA
Series [8] can be described thus: Cmax in CD-1 mouse at 10 mg/kg, po. The series is classed as ADME, organism-based. Further details: dose 10 mg/kg, route po. To be noted: in vivo.
The species named for series [9] is Homo sapiens. The series can be described thus: Selectivity ratio of IC50 for inhibition of wild type EGFR (unknown origin) to IC50 for inhibition of EGFR del19 mutant (unknown origin).
Series [10] concerns the target Epidermal growth factor receptor (Homo sapiens, UniProt P00533). The experiment in a line: Inhibition of wild type EGFR (unknown origin).
The species entered for series [11] is Homo sapiens. The experiment in a line: Selectivity ratio of IC50 for inhibition of wild type EGFR (unknown origin) to IC50 for inhibition of EGFR L858R/T790M mutant (unknown origin).
Series [12] concerns the target Epidermal growth factor receptor (Homo sapiens, UniProt P00533, C797S/EX19DEL/T790M). The series can be described thus: Inhibition of EGFR del19/T790M/C797S mutant (unknown origin).
A short description of series [13]: Clearance in CD-1 mouse at 2 mg/kg, iv. The class given is ADME, organism-based. To be noted: in vivo.
The species named for series [14] is Homo sapiens. The experiment in a line: Selectivity ratio of IC50 for inhibition of wild type EGFR (unknown origin) to IC50 for inhibition of EGFR del19/T790M mutant (unknown origin).
Series [15] can be described thus: Oral bioavailability in CD-1 mouse at 10 mg/kg. The class given is ADME, organism-based. To be noted: in vivo.
Series [16] addresses Epidermal growth factor receptor (Homo sapiens, UniProt P00533, EX19DEL/T790M). The experiment in a line: Inhibition of EGFR del19/T790M mutant (unknown origin).
Series [17] can be described thus: Half-life in CD-1 mouse at 2 mg/kg, iv. The class given is ADME, organism-based. The following applies: in vivo.
Series [18] addresses Epidermal growth factor receptor (Homo sapiens, UniProt P00533, L858R). The experiment in a line: Inhibition of EGFR L858R mutant (unknown origin).
For series [19], the species on record is Homo sapiens. The experiment in a line: Selectivity ratio of IC50 for inhibition of wild type EGFR (unknown origin) to IC50 for inhibition of EGFR del19/T790M/C797S mutant (unknown origin).
For series [20], the species on record is Homo sapiens. The series can be described thus: Selectivity ratio of IC50 for inhibition of wild type EGFR (unknown origin) to IC50 for inhibition of EGFR L858R/T790M/C797S mutant (unknown origin).
The nature of series [21]: Tmax in CD-1 mouse at 10 mg/kg, po. The class given is ADME, organism-based. To be noted: in vivo.
Series [22] concerns the target Epidermal growth factor receptor (Homo sapiens, UniProt P00533, C797S/L858R/T790M). The series can be described thus: Inhibition of EGFR L858R/T790M/C797S mutant (unknown origin).
The species entered for series [23] is Homo sapiens. The experiment in a line: Selectivity ratio of IC50 for inhibition of wild type EGFR (unknown origin) to IC50 for inhibition of EGFR L858R mutant (unknown origin).

The source of these data is ChEMBL document CHEMBL5113388 (Bioorg Med Chem Lett, 2022).

The term IC50 denotes the concentration at which inhibition is half-maximal. For orientation: AUC(0-t) means exposure summed from dosing to a finite time, without extrapolation to infinity. A lower AUC(0-t) goes with less exposure. The term Cmax denotes the highest concentration seen after dosing. The clearance is the rate of elimination divided by the concentration. Read a high clearance as a high capacity for elimination. One may read the bioavailability as dose-corrected exposure relative to a reference, in per cent. Low values mean little systemic uptake, high ones much systemic uptake. As a reminder, the half-life is the time in which the quantity being followed falls by half. Broadly, the Tmax is the time from dosing to the highest level.

Chain of Epidermal growth factor receptor (Homo sapiens, UniProt P00533, C797S/L858R/T790M) (P00533 25-1210 T790M/C797S/L858R limits assumed): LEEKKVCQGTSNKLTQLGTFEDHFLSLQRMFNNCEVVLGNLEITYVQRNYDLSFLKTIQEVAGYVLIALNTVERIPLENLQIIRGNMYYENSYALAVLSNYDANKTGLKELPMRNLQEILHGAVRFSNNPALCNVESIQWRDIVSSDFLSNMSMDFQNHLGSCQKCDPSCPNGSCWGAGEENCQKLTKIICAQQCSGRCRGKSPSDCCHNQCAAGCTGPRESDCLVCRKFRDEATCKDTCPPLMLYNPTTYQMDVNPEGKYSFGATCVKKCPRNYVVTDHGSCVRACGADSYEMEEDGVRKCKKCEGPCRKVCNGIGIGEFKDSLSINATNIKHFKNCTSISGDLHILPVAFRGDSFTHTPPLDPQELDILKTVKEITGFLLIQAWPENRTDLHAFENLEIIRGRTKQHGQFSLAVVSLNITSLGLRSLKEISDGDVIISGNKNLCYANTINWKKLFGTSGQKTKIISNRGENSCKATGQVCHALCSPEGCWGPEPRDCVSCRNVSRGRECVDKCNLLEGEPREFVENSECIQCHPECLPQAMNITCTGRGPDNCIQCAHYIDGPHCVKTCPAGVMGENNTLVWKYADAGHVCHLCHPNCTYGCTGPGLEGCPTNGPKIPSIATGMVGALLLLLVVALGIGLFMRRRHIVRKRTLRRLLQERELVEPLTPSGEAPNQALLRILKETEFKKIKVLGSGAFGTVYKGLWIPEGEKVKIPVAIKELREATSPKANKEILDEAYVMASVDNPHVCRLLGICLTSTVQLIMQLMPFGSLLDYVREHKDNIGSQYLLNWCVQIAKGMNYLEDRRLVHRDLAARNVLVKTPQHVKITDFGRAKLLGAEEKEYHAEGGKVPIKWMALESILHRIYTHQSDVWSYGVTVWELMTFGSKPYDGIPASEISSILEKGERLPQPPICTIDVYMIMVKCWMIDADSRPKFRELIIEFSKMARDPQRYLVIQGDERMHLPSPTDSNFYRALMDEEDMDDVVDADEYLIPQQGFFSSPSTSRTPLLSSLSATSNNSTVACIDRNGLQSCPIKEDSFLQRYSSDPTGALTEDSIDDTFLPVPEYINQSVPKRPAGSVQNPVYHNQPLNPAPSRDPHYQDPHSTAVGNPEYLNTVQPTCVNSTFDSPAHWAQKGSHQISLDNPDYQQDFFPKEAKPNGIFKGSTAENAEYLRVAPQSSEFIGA
Chain of Epidermal growth factor receptor (Homo sapiens, UniProt P00533, L858R) (P00533 25-1210 L858R limits assumed): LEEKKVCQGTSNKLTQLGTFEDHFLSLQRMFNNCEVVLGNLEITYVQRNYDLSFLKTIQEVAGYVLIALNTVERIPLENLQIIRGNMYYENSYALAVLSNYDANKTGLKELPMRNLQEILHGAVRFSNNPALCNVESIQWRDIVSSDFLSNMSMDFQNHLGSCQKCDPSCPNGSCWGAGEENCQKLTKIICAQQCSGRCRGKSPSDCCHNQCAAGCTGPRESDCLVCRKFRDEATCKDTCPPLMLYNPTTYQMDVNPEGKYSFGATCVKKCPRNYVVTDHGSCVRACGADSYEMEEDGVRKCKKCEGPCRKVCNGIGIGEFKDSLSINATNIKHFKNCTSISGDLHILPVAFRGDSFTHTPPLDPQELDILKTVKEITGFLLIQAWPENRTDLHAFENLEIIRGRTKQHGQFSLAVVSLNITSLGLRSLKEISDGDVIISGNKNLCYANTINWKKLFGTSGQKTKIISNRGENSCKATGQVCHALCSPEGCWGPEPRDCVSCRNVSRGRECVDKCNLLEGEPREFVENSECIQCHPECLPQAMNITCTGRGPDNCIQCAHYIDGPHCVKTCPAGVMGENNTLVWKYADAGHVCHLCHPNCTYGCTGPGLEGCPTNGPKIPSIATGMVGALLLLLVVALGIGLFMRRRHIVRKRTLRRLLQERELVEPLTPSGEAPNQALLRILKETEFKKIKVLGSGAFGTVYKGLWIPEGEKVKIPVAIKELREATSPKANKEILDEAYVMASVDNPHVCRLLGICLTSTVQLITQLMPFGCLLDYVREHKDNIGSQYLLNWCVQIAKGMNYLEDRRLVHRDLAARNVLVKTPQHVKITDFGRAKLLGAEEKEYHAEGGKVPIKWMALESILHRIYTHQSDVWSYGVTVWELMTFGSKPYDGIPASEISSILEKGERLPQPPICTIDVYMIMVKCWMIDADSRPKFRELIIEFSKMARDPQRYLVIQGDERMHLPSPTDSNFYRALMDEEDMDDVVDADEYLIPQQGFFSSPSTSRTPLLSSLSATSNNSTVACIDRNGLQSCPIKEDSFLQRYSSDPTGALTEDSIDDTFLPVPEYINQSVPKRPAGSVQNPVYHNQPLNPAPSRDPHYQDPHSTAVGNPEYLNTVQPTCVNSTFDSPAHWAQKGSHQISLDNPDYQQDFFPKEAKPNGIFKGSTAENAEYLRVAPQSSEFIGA
Chain of Epidermal growth factor receptor (Homo sapiens, UniProt P00533, EX19DEL/T790M) (P00533 whole entry, looked up, stated change not applied): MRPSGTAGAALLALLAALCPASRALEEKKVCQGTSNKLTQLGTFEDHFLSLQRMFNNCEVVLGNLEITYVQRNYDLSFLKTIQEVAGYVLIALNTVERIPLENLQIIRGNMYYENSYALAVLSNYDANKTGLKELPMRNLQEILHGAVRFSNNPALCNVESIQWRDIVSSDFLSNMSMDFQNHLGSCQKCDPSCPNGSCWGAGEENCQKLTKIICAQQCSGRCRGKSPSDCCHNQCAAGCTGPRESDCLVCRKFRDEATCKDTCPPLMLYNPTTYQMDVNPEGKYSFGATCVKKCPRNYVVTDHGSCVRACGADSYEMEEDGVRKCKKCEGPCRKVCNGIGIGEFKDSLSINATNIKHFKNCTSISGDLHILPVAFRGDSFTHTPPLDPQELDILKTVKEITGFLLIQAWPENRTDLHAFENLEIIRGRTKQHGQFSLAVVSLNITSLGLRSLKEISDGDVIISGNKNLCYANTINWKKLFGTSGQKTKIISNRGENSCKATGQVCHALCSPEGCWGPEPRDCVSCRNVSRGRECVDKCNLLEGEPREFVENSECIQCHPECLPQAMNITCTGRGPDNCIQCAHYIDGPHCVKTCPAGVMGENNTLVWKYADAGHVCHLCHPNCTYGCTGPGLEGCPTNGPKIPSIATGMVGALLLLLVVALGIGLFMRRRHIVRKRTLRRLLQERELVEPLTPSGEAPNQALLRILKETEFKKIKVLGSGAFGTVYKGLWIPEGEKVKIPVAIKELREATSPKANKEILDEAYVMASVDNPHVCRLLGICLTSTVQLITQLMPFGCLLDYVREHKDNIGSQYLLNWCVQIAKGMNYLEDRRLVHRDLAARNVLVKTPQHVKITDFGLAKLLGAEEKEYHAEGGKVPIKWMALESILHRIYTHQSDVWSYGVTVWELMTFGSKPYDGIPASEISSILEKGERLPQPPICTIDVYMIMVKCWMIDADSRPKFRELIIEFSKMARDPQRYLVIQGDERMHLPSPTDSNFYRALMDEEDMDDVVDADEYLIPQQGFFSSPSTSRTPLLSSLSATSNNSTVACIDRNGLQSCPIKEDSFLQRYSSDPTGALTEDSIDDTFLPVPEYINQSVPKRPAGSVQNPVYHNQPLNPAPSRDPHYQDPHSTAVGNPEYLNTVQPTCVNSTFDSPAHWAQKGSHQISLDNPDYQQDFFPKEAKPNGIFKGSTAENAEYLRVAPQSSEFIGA

On to `CCc1cc(Nc2ncc(Br)c(Nc3ccc4nc5c(nc4c3P(C)(C)=O)CCCC5)n2)c(OC)cc1N1CCC(N2CCN(C)CC2)CC1`, for which the IC50 came to 0.217 µM in the series on PC-9 [1] and 0.0374 µM in the series with BaF3.
On to `CCc1cc(Nc2ncc(Br)c(Nc3ccc4c(ccc5ccccc54)c3P(C)(C)=O)n2)c(OC)cc1N1CCC(N2CCN(C)CC2)CC1`, for which the IC50 in the series with PC-9 [1] and in the series on BaF3 was > 1 µM each time.
As to `COc1cc(N2CCC(N3CCN(C)CC3)CC2)c(-c2cnn(C3CC3)c2)cc1Nc1ncc(Br)c(Nc2ccc(C)c(C)c2P(C)(C)=O)n1`, the IC50 with PC-9 [1] and in the series with BaF3 was > 1 µM in each case.
Turning to `COc1cc(N2CCC(N3CCN(C)CC3)CC2)ccc1Nc1ncc(Br)c(Nc2cc3c4c(cccc4c2P(C)(C)=O)CC3)n1`, the IC50 in the series with PC-9 [1] and in the series on BaF3 was > 1 µM throughout.
Consider `CCc1cc(Nc2ncc(Br)c(Nc3cc4c5c(cccc5c3P(C)(C)=O)CC4)n2)c(OC)cc1N1CCC(N2CCN(C)CC2)CC1`, for which the IC50 in the series on PC-9 [1] and in the series on BaF3 was > 1 µM throughout.
On to `COc1cc(N2CCC(N3CCN(C)CC3)CC2)c(-c2cnn(C)c2)cc1Nc1ncc(Br)c(Nc2cc(F)c(C)c(C)c2P(C)(C)=O)n1`, for which the IC50 in the series with PC-9 [1] and with BaF3 was > 1 µM in each case.
On to `CCc1cc(Nc2ncc(Br)c(Nc3cc4c5c(cccc5c3P(C)(C)=O)COC4)n2)c(OC)cc1N1CCC(N2CCN(C)CC2)CC1`, for which the IC50 in the series with PC-9 [1] and with BaF3 was > 1 µM each time.
As for `COc1cc(N2CCC(N3CCN(C)CC3)CC2)ccc1Nc1ncc(Br)c(Nc2cc3c4c(cccc4c2P(C)(C)=O)COC3)n1`, the IC50 in the series with PC-9 [1] and in the series on BaF3 was > 1 µM in each case.
Regarding `COc1cc(N2CCC(N3CCN(CCS(C)(=O)=O)CC3)CC2)c(-c2cnn(C)c2)cc1Nc1ncc(Br)c(Nc2ccc(C)c(C)c2P(C)(C)=O)n1`, the IC50 in the series with PC-9 [1] and in the series with BaF3 was > 1 µM throughout.
As for `COc1cc(N2CCC(N3CCN(C)CC3)CC2)ccc1Nc1ncc(Cl)c(Nc2ccccc2P(C)(C)=O)n1` [BRIGATINIB], the IC50 with PC-9 [2] stood at 0.599 µM.
As for `CCc1cc(Nc2ncc(Br)c(Nc3ccc4nccnc4c3P(C)(C)=O)n2)c(OC)cc1N1CCC(N2CCN(CCSC)CC2)CC1`, the values for the IC50 in the series with PC-9 [1] and with BaF3 were 0.148 µM and 0.00387 µM, respectively.
Taken in the same sequence, the figures for `COc1cc(N2CCC(N3CCN(C)CC3)CC2)ccc1Nc1ncc(Br)c(Nc2ccc3c(ccc4ccccc43)c2P(C)(C)=O)n1` were > 1 µM and > 1 µM.
On to `CCc1cc(Nc2ncc(Br)c(Nc3ccc(C4CC4)cc3P(C)(C)=O)n2)c(OC)cc1N1CCC(N2CCN(CCS(C)(=O)=O)CC2)CC1`, for which the IC50 in the series with PC-9 [1] and with BaF3 was > 1 µM throughout.
In turn, `CCc1cc(Nc2ncc(Br)c(Nc3ccc4nccnc4c3P(C)(C)=O)n2)c(OC)cc1N1CCC(N2CCN(CCS(C)(=O)=O)CC2)CC1` returned an AUClast in series [3] of 13820 ng·h/mL. Also, the Vd in [4] came to 0.7 L/kg. Moreover, the IC50 in series [5] was 0.0009 µM; with PC-9 [1], 0.0667 µM; in series [7], 0.0002 µM; in [10], 0.0104 µM; in [12] it was 0.0002 µM; in [16], 0.0001 µM. Besides, the IC50 in [18] came out at 0.0031 µM; in the series with BaF3 it was 0.00153 µM; in [22] it was 0.0003 µM. The molecule also gave an AUC(0-t) in [6] of 33800 ng·h/mL. In series [8], this molecule came in with a Cmax of 6600 ng/mL. Besides, the Ratio IC50 in the series filed under Homo sapiens [9] is 11; in the series listed under Homo sapiens [11] it was 43; in the series filed under Homo sapiens [14], 81; in the series filed under Homo sapiens [19] it was 54; in the series listed under Homo sapiens [20], 41; in the series filed under Homo sapiens [23], 3.4. Further, the clearance in [13] was determined as 2.4 mL/min/kg. Moreover, in [15], the bioavailability is 48.9%. For the same molecule, in [17], the half-life is 3.3 h. The Tmax in series [21] worked out at 0.5 h.
For the molecule `COc1cc(N2CCC(N3CCN(C)CC3)CC2)c(-c2cnn(C)c2)cc1Nc1ncc(Br)c(Nc2cc(C)c(C)c(C)c2P(C)(C)=O)n1`, the results for the IC50 in the series on PC-9 [1] and with BaF3 were 0.0674 µM and 0.0036 µM, respectively.
In the case of `CCc1cc(Nc2ncc(Br)c(Nc3ccc4nccnc4c3P(C)(C)=O)n2)c(OC)cc1N1CCC(N(C)CCS(C)(=O)=O)CC1`, the 50% inhibitory concentration (IC50) in the series on PC-9 [1] is 0.127 µM.
